Experimental data from the supplement of paper PMC10702517.
± gives the standard deviation.

Experiments:
[1] = chemical recovery into PDMS from spiked human plasma; higher = better extraction; details: pooled human plasma, extraction method: PES with PDMS
[2] = chemical recovery by SPE of plasma after PDMS sampling; higher = better extraction; details: pooled human plasma, extraction method: HLB SPE of plasma after PES
[3] = chemical recovery from spiked human plasma; higher = better extraction; details: pooled human plasma
[4] = extraction method: PES+SPE (3 d PDMS equilibration then HLB SPE)
[5] = extraction method: SPE only (HLB 96-well)
[6] = extraction method: SPE only (HLB 96-well), PES comparison experiment
[7] = extraction method: solvent precipitation (ACN + hexane)
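For chemical recovery by SPE of plasma after PDMS sampling in this document: over 400 spiked chemicals quantified by LC-HRMS or GC-HRMS via internal standard calibration, recovery relative to spike mix added to unspiked plasma extract to correct matrix effects.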

Row | Compound | chemical recovery into PDMS ([1]; equilibration time (d): 1) | chemical recovery into PDMS ([1]; equilibration time (d): 3) | chemical recovery into PDMS ([1]; equilibration time (d): 6) | chemical recovery by SPE of plasma ([2]; equilibration time (d): 1) | chemical recovery by SPE of plasma ([2]; equilibration time (d): 3) | chemical recovery by SPE of plasma ([2]; equilibration time (d): 6) | chemical recovery [3, 4] | chemical recovery [3, 5] | chemical recovery [3, 6] | chemical recovery [3, 7]
1 | CSc1nnc(C(C)(C)C)c(=O)n1N [Metribuzin] | 25 ± 2.2% | 25.2 ± 1.9% | 29.4 ± 1.2% | 10.9 ± 1.3% | 15.3 ± 1.4% | 10.4 ± 1.8% | 49.7 ± 7.4% | 49 ± 2.9% | 54.2 ± 7.9% | 71.8 ± 2.9%
2 | CN(C)c1ccc(C(=O)c2ccc(N(C)C)cc2)cc1 [Michler's ketone] | 17.2 ± 9.7% | 15.5 ± 10% | 16.7 ± 4.2% | 1.38 ± 0.41% | 1.1 ± 0.12% | 0.502 ± 0.091% |  | 34.4 ± 1.9% |  | 
3 | Clc1ccc(COC(Cn2ccnc2)c2ccc(Cl)cc2Cl)c(Cl)c1 (centres undefined) [Miconazole] | 33.6 ± 2.4% | 34.9 ± 3.2% | 31.5 ± 2.8% | 0.659 ± 0.14% | 0.405 ± 0.14% | 0.117 ± 0.082% |  | 43.2 ± 6.1% | 40.4 ± 10% | 85.3 ± 8.5%
4 | CC[C@@]1([C@@H]2O[C@@H]([C@H]3O[C@@](O)(CO)[C@H](C)C[C@@H]3C)C[C@@H]2C)CC[C@H]([C@]2(C)CC[C@]3(C[C@H](O)[C@@H](C)[C@@H]([C@@H](C)[C@@H](OC)[C@H](C)C(=O)O)O3)O2)O1 [Monensin] | 37.1 ± 2.8% | 38.6 ± 0.52% | 37.8 ± 2.2% | 3.19 ± 0.8% | 2.26 ± 0.39% | 1.33 ± 0.27% |  |  | 29.9 ± 6.6% | 1.03 ± 1.8%
5 | CCCCC(C#N)(Cn1cncn1)c1ccc(Cl)cc1 (centres undefined) [Myclobutanil] | 38.4 ± 1.9% | 42.1 ± 3.6% | 41.6 ± 0.64% | 1.71 ± 0.26% | 1.32 ± 0.3% |  |  |  | 48.5 ± 8.4% | 79.3 ± 2.2%
6 | CCCCCCCCCCCCCC[N+](C)(C)[O-] [N,N-Dimethyltetradecylamine-N-oxide] | 0.599 ± 0.55% | 1.2 ± 0.35% | 1.01 ± 0.26% | 15.7 ± 3.1% | 12.5 ± 4.9% | 8.54 ± 5.7% |  | 71.5 ± 26% | 42.7 ± 8.4% | 
7 | CCCCCCCCCCCCCCN(C)C [N,N-Dimethyltetradecylamine] |  | 0.0161 ± 0.022% |  | 0.241 ± 0.23% | 0.0666 ± 0.015% | 0.0207 ± 0.085% |  |  | 39.3 ± 8.7% | 
8 | c1ccc2sc(NC3CCCCC3)nc2c1 [N-Cyclohexyl-2-benzothiazole-amine] | 32.4 ± 2.2% | 34 ± 3% | 34.2 ± 1.6% | 0.591 ± 0.065% | 0.595 ± 0.073% | 0.297 ± 0.037% | 98.9 ± 11% | 51.9 ± 3.6% | 42.4 ± 6.5% | 74.8 ± 3.3%
9 | CCNS(=O)(=O)c1ccccc1C [N-Ethyl-o-toluenesulfonamide] | 23.5 ± 1.3% | 23.2 ± 2.6% | 26.3 ± 2.6% | 19.8 ± 2.8% | 25.7 ± 2.5% | 18.8 ± 3% | 52.7 ± 7.9% | 46.9 ± 1.4% | 52.6 ± 6.1% | 68.2 ± 2.2%
10 | c1ccc(Nc2cccc3ccccc23)cc1 [N-Phenyl-1-naphthylamine] | 4.16 ± 1.3% | 6.12 ± 3.5% | 6.6 ± 1.1% | 2.23 ± 1.6% | 2.7 ± 0.69% | 1.86 ± 0.51% |  | 45.8 ± 14% | 18.7 ± 4.1% | 83.2 ± 5.3%
11 | CCOC(=O)C1=C(C)NC(C)=C(C(=O)OC)C1c1cccc([N+](=O)[O-])c1 (centres undefined) [Nitrendipin] | 13.4 ± 0.56% | 17.4 ± 3.6% | 18.6 ± 1.1% | 7.61 ± 0.89% | 5.18 ± 0.19% | 2.81 ± 0.16% | 37.1 ± 7.9% | 42.25 ± 0.22% | 51.5 ± 5.5% | 52.1 ± 2.9%
12 | C#C[C@]1(O)CC[C@H]2[C@@H]3CCC4=CC(=O)CC[C@@H]4[C@H]3CC[C@@]21C [Norethindrone] | 40.1 ± 2.1% | 46.1 ± 2.3% | 47.6 ± 1.2% |  | 4.09 ± 7.1% | 3.48 ± 6% |  |  | 54.2 ± 6.8% | 
